In patent US10052320B2, “Substituted quinoxalines as FGFR kinase inhibitors” (ASTEX THERAPEUTICS LIMITED, priority 2011, dated 2018):

Assays:
[1] = tested on: Ba/F3-FGFR1-transfected cells in the presence of 10 ng/ml murine IL3; experiment: Ba/F3-FGFR1 (plus IL3) cellular proliferation counterscreen, Alamar Blue; format: cell-based; details: Mus musculus; plus IL3, 384 well; read-out: BAF3-FGFR 1 (PLUS IL3) 384 well pIC50 (converted)
In short: (§1)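 Compound dilutions in DMSO are combined with transfected cells in phenol red-free RPMI-1640 containing 10% FBS and L-glutamine. Plates incubate 24 h at 37 °C and 5% CO2. Viability is then scored by 4 h Alamar Blue conversion, read as fluorescence (540 nm excitation, 590 nm emission).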

[2] = biological target: Ba/F3-FGFR4-transfected cells (Homo sapiens, UniProt P22455); experiment: Ba/F3-FGFR4 cellular proliferation assay, Alamar Blue; format: cell-based
In short: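 Alamar Blue fluorescence (540/590 nm, 4 h development) measured growth of FGFR4-transfected Ba/F3 cells after 24 h compound treatment at 37° C. Cells were seeded at 20000/well in RPMI-1640, 10% FBS.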

[3] = biological target: Ba/F3-FGFR3-transfected cells (Homo sapiens, UniProt P22607); experiment: Ba/F3-FGFR3 (minus IL3) cellular proliferation assay, Alamar Blue; format: cell-based; details: minus IL3, 384 well
In short: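 Cells are seeded with compound dilutions, incubated 24 h at 37 °C under 5% CO2, then given resazurin-based Alamar Blue for a further 4 h before fluorescence is measured. The plus-IL3 counterscreen repeats this with 10 ng/ml murine IL3.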

FGFR1 (h) = FGFR1 (h) (Homo sapiens, UniProt P11362); experiment: FGFR1 (enzymatic assay), TR-FRET; format: biochemical; details: read-out: FGFR 1 pIC50 (converted)
Method: (§2) In a final reaction volume of 30 μL, FGFR1 (h) (25 ng/ml) was incubated with 50 mM HEPES pH 7.5, 6 mM MnCl2, 1 mM DTT, 0.1 mM Na3VO4, 0.01% Triton-X-100, 500 nM Btn-Flt3 and 5 μM ATP in the presence of compound (1% DMSO final). […] Time-Resolved Fluorescence Resonance Energy Transfer (TR-FRET) signal (ex340 nm. Em 620 nm, em 655 nm) was measured afterwards and results are expressed in RFU (Relative Fluorescence Units).

[4] = biological target: Ba/F3-FGFR1-transfected cells (Homo sapiens, UniProt P11362); experiment: Ba/F3-FGFR1 (minus IL3) cellular proliferation assay, Alamar Blue; format: cell-based; details: minus IL3, 384 well
In short: as §1

FGFR2 (h) = FGFR2 (h) (Homo sapiens, UniProt P21802); experiment: FGFR2 (enzymatic assay), TR-FRET; format: biochemical; details: read-out: FGFR 2 pIC50 (converted)
Method: as §2, with “μL, FGFR2” for “μL, FGFR1”, “(h) (150” for “(h) (25”, “and 0.4” for “and 5”, “in” for “in RFU”

Ba/F3-FGFR4-transfected cells, sequence (P22455 whole entry, change not shown): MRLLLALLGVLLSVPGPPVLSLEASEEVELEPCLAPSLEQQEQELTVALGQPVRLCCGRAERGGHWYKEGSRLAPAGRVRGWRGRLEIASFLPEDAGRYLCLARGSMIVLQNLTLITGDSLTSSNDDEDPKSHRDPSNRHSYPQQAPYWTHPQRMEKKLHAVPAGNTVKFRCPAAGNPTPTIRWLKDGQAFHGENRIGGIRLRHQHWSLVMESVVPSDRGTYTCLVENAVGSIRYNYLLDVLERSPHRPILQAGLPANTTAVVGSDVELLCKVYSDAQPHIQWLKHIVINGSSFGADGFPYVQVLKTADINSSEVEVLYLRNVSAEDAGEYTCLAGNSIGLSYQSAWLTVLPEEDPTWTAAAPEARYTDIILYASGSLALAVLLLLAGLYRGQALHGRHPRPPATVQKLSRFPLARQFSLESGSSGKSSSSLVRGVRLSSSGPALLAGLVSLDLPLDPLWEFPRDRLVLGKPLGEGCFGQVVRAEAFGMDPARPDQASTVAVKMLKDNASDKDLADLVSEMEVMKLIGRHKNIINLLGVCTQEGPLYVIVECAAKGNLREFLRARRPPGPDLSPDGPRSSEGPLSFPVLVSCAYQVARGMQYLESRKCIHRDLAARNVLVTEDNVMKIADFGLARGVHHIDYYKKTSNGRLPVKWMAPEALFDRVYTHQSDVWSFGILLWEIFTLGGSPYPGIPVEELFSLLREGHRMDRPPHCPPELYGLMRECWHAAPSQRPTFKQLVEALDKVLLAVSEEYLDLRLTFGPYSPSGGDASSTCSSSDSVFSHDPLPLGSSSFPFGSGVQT
FGFR1 (h), sequence (P11362 22-822): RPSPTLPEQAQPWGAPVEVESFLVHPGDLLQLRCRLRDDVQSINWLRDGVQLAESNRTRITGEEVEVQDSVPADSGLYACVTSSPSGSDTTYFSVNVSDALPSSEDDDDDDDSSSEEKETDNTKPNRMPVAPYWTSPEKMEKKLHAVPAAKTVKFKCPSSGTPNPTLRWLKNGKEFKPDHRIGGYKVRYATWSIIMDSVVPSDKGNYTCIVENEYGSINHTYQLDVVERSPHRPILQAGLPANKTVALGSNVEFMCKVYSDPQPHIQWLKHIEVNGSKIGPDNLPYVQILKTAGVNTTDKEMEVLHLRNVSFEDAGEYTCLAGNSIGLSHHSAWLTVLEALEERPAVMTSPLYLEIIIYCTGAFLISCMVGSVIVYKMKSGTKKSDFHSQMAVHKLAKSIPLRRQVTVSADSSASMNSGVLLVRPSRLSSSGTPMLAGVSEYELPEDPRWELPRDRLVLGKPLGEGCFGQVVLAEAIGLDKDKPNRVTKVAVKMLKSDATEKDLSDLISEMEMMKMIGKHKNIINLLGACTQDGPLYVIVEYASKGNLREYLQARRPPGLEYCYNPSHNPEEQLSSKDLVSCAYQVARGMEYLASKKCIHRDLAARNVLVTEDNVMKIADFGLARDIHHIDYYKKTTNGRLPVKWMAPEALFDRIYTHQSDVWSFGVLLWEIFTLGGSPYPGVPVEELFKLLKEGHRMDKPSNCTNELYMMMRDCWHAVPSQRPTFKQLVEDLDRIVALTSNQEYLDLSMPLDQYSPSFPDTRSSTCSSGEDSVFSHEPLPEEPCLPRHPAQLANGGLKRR
Ba/F3-FGFR3-transfected cells, sequence (P22607 whole entry, change not shown): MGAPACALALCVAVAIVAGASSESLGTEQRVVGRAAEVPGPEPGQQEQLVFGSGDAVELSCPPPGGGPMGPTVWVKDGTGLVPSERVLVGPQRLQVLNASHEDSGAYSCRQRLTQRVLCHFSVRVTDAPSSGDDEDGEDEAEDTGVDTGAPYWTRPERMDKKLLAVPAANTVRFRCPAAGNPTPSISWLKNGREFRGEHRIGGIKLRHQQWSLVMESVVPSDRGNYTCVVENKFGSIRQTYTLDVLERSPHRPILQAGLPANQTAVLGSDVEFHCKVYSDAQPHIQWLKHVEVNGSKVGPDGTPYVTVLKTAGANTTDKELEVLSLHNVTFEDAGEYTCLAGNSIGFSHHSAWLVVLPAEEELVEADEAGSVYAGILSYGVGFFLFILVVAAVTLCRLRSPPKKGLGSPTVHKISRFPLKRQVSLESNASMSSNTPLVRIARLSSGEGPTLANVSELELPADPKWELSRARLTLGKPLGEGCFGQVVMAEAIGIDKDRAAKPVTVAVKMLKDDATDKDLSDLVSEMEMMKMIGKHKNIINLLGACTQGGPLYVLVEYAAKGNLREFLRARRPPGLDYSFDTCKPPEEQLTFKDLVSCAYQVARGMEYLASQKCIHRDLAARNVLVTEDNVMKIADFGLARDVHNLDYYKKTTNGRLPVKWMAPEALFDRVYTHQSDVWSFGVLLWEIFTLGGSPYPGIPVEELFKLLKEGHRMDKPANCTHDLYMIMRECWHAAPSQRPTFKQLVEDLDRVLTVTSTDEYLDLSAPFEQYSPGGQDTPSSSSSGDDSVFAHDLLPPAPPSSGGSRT
Ba/F3-FGFR1-transfected cells, sequence (P11362 whole entry, change not shown): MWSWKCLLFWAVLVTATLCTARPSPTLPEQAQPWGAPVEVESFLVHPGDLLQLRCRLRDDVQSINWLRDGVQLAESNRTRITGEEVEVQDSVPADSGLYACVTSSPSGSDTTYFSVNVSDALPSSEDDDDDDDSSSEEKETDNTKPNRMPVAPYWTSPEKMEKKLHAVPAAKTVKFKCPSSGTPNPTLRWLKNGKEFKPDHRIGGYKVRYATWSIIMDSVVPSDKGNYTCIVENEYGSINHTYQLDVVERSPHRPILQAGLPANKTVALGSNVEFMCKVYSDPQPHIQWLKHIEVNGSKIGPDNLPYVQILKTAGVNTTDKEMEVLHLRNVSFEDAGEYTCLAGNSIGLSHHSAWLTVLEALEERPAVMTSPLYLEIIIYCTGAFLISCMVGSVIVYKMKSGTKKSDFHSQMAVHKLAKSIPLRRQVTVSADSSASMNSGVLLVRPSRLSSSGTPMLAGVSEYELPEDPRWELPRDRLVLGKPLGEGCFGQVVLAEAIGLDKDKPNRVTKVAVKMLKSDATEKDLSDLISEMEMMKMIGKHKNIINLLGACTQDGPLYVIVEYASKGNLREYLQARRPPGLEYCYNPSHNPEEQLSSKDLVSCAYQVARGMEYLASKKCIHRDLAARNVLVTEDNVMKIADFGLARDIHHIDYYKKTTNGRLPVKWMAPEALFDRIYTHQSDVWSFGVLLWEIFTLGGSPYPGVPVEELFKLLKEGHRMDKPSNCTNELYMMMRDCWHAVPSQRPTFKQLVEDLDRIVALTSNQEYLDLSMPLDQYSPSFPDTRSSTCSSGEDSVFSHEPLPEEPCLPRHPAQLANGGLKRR
FGFR2 (h), sequence (P21802 22-821): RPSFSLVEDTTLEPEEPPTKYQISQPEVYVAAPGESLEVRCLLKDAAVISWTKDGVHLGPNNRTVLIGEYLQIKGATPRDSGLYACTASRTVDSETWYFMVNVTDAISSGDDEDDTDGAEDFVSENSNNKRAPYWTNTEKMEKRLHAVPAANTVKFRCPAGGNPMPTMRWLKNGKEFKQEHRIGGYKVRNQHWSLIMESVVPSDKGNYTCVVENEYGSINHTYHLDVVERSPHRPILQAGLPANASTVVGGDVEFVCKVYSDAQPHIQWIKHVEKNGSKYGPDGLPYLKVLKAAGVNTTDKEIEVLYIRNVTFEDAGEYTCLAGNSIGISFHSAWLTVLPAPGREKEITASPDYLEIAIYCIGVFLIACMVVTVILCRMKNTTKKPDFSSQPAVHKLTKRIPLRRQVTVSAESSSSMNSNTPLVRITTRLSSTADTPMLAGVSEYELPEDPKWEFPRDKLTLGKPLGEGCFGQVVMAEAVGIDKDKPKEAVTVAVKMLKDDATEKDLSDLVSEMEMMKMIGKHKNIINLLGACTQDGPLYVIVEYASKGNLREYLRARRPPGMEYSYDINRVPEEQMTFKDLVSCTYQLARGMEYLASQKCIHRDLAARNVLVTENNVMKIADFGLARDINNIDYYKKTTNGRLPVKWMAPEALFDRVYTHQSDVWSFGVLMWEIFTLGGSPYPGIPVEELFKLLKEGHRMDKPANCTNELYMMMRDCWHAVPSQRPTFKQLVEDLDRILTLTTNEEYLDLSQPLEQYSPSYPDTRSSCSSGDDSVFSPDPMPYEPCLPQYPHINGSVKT

| SMILES | IC50 [1] [nM] | BAF3-FGFR4 pIC50 [2] | BAF3-FGFR 3 (MIN IL3) 384 well pIC50 [3] | IC50 (FGFR1 (h)) [nM] | BAF3-FGFR 1 (MIN IL3) 384 well pIC50 [4] | IC50 (FGFR2 (h)) [nM] |
| --- | --- | --- | --- | --- | --- | --- |
| COc1cc(OC)cc(N(CCNC(C)C)c2ccc3ncc(NCC4CCNCC4)nc3c2)c1 [Compound 161] | > 10000 | <5 | 5.38 | 5.89 | 5.42 | 14.1 |
| COc1cc(OC)cc(N(CCO)c2ccc3ncc(-c4ccc(N5CCN(C)CC5)nc4)nc3c2)c1 [Compound 163] | ~10000 | <5 | ~6.14 | 7.41 | 6.15 | 15.8 |
| COc1cc(OC)cc(N(CCO)c2ccc3ncc(-c4ccc(N5CCNCC5)nc4)nc3c2)c1 [Compound 165] | 6610 | 6.6 | 6.12 | 3.89 | 6.56 | 12.6 |
| COc1cc(OC)cc(N(CCNC(C)C)c2ccc3ncc(-n4cnc(COC(C)=O)c4)nc3c2)c1 [Compound 167] | > 10000 | 6.4 | 7.09 | 1.66 | 7.13 | 7.76 |
| COc1cc(OC)cc(N(CCNC(C)C)c2ccc3ncc(-c4ccc(N5CCOCC5)nc4)nc3c2)c1 [Compound 168] | 7760 | 6.9 | ~7.15 | 0.955 | 7.04 | 3.72 |
| COc1cc(OC)cc(N(CCN2CCOCC2)c2ccc3ncc(-c4ccc(N)nc4)nc3c2)c1 [Compound 169] | > 10000 | 6.0 | 6.19 | 8.71 | 6.37 | 15.8 |
| COc1cc(OC)cc(N(CCNC(C)C)c2ccc3ncc(-c4ccc(N5CCN(C)CC5)nc4)nc3c2)c1 [Compound 170] | 3550 | 6.2 | 6.16 | 0.813 | 6.04 | 3.98 |
| COc1cc(OC)cc(N(CCO)c2ccc3ncc(/C(C)=N/OC(C)(C)C)nc3c2)c1 [Compound 171] | > 10000 | <5 | <5 | 603 | <5 | 724 |
| COC(=O)C1CCCN1c1cnc2ccc(N(CCO)c3cc(OC)cc(OC)c3)cc2n1 (stereo not drawn) [Compound 172] | > 10000 | 5.1 | 5.36 | 107 | 6.6 | 145 |
| COc1cc(OC)cc(N(CCO)c2ccc3ncc(C4=CCN(C(=O)OC(C)(C)C)C4)nc3c2)c1 [Compound 173] | > 10000 | 5.6 | 6.08 | 29.5 | 5.68 | 32.4 |
| COc1cc(OC)cc(N(CCO)c2ccc3ncc(C4=CCN(C(=O)OC(C)(C)C)CC4)nc3c2)c1 [Compound 178] | > 10000 | 5.9 | 6.29 | 5.13 | 6.07 | 12.3 |
| COc1cc(OC)cc(N(CCNC(C)C)c2ccc3ncc(C(=O)N4CCN(C)CC4)nc3c2)c1 [Compound 179] | > 10000 | <5 | 5.19 | 204 | 5.62 | 427 |
| COc1cc(OC)cc(N(CCNC(C)C)c2ccc3ncc(C(=O)N4CCCCC4)nc3c2)c1 [Compound 180] | > 10000 | 5.2 | 5.28 | 229 | 5.51 | 302 |
| COc1cc(OC)cc(N(CCNC(C)C)c2ccc3ncc(C(=O)N4CCOCC4)nc3c2)c1 [Compound 181] | > 10000 | <5 | 5.16 | 295 | 5.44 | 490 |
| COc1cc(OC)cc(N(CCNC(C)C)c2ccc3ncc(C(=O)NCCCN4CCCCC4)nc3c2)c1 [Compound 182] | > 10000 | 5.7 | 5.64 | 19.5 | 5.89 | 26.3 |
| COc1cc(OC)cc(N(CC#Cc2ncccc2OC)c2ccc3ncc(-c4cccnc4)nc3c2)c1 [Compound 183] | > 10000 | ~6.5 | 7.1 | 155 | 6.76 | 81.3 |
| COc1cc(OC)cc(N(CCO)c2ccc3ncc(C(=O)Nc4cnn(C)c4)nc3c2)c1 [Compound 184] | > 10000 | 5.1 | 5.27 | 141 | 5.28 | 155 |
| COc1cc(OC)cc(N(CCO)c2ccc3ncc(C4CCN(C(=O)OC(C)(C)C)CC4)nc3c2)c1 [Compound 185] | > 10000 | <5 | 5.01 | 316 | <5 | 214 |
| COc1cc(OC)cc(N(CCCO)c2ccc3ncc(-c4ccnc(C(=O)NCCOCCO)c4)nc3c2)c1 [Compound 186] | > 10000 | 5.57 | 5.8 | 44.7 | 5.98 | 36.3 |
| COc1cc(OC)cc(N(CCNC(C)C)c2ccc3ncc(-c4ccnn4C4CCCCO4)nc3c2)c1 (stereo not drawn) [Compound 188] | > 10000 | 6.05 | 6.17 | 10 | 6.46 | 7.41 |
| COc1cc(OC)cc(N(CCNC(C)C)c2ccc3ncc(-c4ccn[nH]4)nc3c2)c1 [Compound 189] | > 10000 | 6.23 | ~7.1 | 2.82 | 7.29 | 2.29 |
